Positions of bridges follow the written chain, without caps; N, C: chain ends. Non-standard residues stand in square brackets, D forms with d. Residues, ends and D or L forms follow the SMILES beside them. *: point of attachment. pY = N[C@@H](Cc1ccc(OP(=O)(O)O)cc1)C(=O)O; O(2-Aminobenzoyl) = Nc1ccccc1C(=O)O*; X9 = O=S(=O)(O*)c1cccc2cccnc12; X13 = Nc1cc2ccccc2cc1C(=O)O*; X2 = O=C(O*)c1cc2ccccc2[nH]1; X3 = O=C(O*)c1cnc2ccccc2c1; X7 = O=C(O*)c1cc2ccccc2cn1; X8 = Nc1cc(N)cc(C(=O)O*)c1; X12 = Nc1ccccc1C(=O)OCCN*; X5 = O=C(O*)C1Cc2ccccc2N1; Ac6c = NC1(C(=O)O)CCCCC1; X11 = Nc1ccc(C(=O)O*)cc1; Ac5c = NC1(C(=O)O)CCCC1; X1 = Nc1ccccc1C(=O)OCN*; X6 = Nc1cccc(C(=O)O*)c1; X10 = Nc1ncccc1C(=O)O*; X4 = O=C(O*)c1ccccc1O; Acm = CC(=O)NC*
Each molecule was assayed against EGFR (UniProt P00533).
Chain of EGFR (P00533 whole entry, looked up): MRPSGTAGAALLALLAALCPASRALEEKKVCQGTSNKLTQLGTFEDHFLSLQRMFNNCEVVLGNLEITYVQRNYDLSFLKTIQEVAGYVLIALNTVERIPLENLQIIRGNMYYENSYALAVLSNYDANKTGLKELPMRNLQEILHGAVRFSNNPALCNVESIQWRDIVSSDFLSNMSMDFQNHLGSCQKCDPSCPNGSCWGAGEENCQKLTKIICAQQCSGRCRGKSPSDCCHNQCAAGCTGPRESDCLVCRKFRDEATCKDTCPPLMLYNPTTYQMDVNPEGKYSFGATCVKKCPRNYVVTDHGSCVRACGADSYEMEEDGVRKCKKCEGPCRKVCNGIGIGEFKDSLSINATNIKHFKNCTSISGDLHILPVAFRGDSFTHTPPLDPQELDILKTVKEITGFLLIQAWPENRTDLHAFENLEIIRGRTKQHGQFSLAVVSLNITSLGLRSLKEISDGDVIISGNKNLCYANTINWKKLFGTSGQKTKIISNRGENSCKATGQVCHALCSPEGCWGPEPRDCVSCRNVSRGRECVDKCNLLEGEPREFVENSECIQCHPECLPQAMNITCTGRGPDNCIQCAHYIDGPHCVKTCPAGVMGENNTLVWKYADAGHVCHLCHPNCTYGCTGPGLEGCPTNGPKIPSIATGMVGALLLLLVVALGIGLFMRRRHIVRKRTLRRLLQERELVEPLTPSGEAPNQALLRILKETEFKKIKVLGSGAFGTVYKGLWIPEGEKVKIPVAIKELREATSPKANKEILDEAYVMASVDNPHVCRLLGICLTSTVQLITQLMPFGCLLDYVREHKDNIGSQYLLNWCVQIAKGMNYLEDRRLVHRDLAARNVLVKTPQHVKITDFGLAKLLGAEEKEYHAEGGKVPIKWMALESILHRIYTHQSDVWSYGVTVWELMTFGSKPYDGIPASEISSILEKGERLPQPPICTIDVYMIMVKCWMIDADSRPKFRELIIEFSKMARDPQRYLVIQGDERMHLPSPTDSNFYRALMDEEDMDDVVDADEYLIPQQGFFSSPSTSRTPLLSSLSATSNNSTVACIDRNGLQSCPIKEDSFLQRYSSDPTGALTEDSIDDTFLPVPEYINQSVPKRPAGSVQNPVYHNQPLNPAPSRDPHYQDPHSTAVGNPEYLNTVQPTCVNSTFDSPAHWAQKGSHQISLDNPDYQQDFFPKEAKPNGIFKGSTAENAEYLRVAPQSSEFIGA
With CC[C@H](C)[C@H](NC(=O)[C@@H](N)CC(N)=O)C(=O)N[C@@H](Cc1ccc(OP(=O)(O)O)cc1)C(=O)N[C@@H](CCC(=O)O)C(=O)OC(=O)c1ccccc1N (H-NI[pY]E-{O(2-Aminobenzoyl)}) the IC50 was 22 nM.
CC[C@H](C)[C@H](N)C(=O)N[C@H](C(=O)N[C@@H](Cc1ccc(OP(=O)(O)O)cc1)C(=O)N[C@@H](CC(=O)O)C(=O)OC(=O)c1ccccc1N)[C@@H](C)CC (H-II[pY]D-{O(2-Aminobenzoyl)}) showed an IC50 of 230 nM.
Work on CC[C@H](C)[C@H](NC(=O)[C@H](CC(N)=O)NC(=O)[C@@H](N)CCC(N)=O)C(=O)N[C@@H](Cc1ccc(OP(=O)(O)O)cc1)C(=O)N[C@H](C(=O)OC(=O)c1ccccc1N)C(C)C (H-QNI[pY]V-{O(2-Aminobenzoyl)}) yielded an IC50 of 106 nM.
With CC[C@H](C)[C@H](NC(=O)[C@H](CC(N)=O)NC(=O)[C@@H](N)CCC(N)=O)C(=O)N[C@@H](Cc1ccc(OP(=O)(O)O)cc1)C(=O)N[C@@H](CCC(=O)O)C(=O)OC(=O)c1cc2ccccc2cn1 (H-QNI[pY]E-X7) the IC50 was 550 nM.
Molecule CC[C@H](C)[C@@H]1NC(=O)[C@H](CC(N)=O)NC(=O)[C@@H](N)CSSC[C@@H](C(=O)OC(=O)c2ccccc2N)NC(=O)[C@H](Cc2ccc(OP(=O)(O)O)cc2)NC1=O (H-CNI[pY]C-{O(2-Aminobenzoyl)}; disulfide 1-5) has an IC50 of 214 nM.
CC[C@H](C)[C@H](NC(=O)[C@H](CC(N)=O)NC(=O)[C@@H](N)CCC(N)=O)C(=O)N[C@@H](Cc1ccc(OP(=O)(O)O)cc1)C(=O)N[C@H](C(=O)OC(=O)c1ccccc1N)[C@@H](C)CC (H-QNI[pY]I-{O(2-Aminobenzoyl)}) gave an IC50 of 6 nM.
With CC[C@H](C)[C@H](NC(=O)[C@H](CC(N)=O)NC(=O)[C@@H](N)CCC(N)=O)C(=O)N[C@@H](Cc1ccc(OP(=O)(O)O)cc1)C(=O)N[C@@H](CCC(=O)O)C(=O)OC(=O)c1cccnc1N (H-QNI[pY]E-X10) the IC50 was 480 nM.
CC[C@H](C)[C@H](NC(=O)[C@H](CC(N)=O)NC(=O)[C@@H](N)CCC(N)=O)C(=O)N[C@@H](Cc1ccc(OP(=O)(O)O)cc1)C(=O)N[C@@H](CCC(=O)O)C(=O)OC(=O)c1cnc2ccccc2c1 (H-QNI[pY]E-X3) gave an IC50 of 810 nM.
Molecule CC[C@H](C)[C@H](NC(=O)[C@H](CC(N)=O)NC(=O)[C@@H](N)CCC(N)=O)C(=O)N[C@@H](Cc1ccc(OP(=O)(O)O)cc1)C(=O)N[C@@H](CC(C)C)C(=O)OC(=O)c1ccccc1N (H-QNI[pY]L-{O(2-Aminobenzoyl)}) has an IC50 of 138 nM.
For CC[C@H](C)[C@@H]1NC(=O)[C@H](CC(N)=O)NC(=O)[C@H](CCC(N)=O)NC(=O)[C@@H](N)CSSC[C@@H](C(=O)OC(=O)c2ccccc2N)NC(=O)[C@H](Cc2ccc(OP(=O)(O)O)cc2)NC1=O (H-CQNI[pY]C-{O(2-Aminobenzoyl)}; disulfide 1-6), the IC50 was 15 nM.
CC(=O)NCSC[C@H](NC(=O)[C@H](CC(N)=O)NC(=O)[C@@H](N)CCC(N)=O)C(=O)N[C@@H](Cc1ccc(OP(=O)(O)O)cc1)C(=O)N[C@@H](CSCNC(C)=O)C(=O)OC(=O)c1ccccc1N (H-QNC(Acm)[pY]C(Acm)-{O(2-Aminobenzoyl)}) was tested, and the IC50 was 3140 nM.
CC[C@H](C)[C@H](NC(=O)[C@H](CC(N)=O)NC(=O)[C@@H](N)CCC(N)=O)C(=O)N[C@@H](Cc1ccc(OP(=O)(O)O)cc1)C(=O)N[C@@H](CCC(=O)O)C(=O)OC(=O)c1cc(N)cc(N)c1 (H-QNI[pY]E-X8) gave an IC50 of 180 nM.
NC(=O)C[C@H](N)C(=O)NC1(C(=O)N[C@@H](Cc2ccc(OP(=O)(O)O)cc2)C(=O)N[C@@H](CCC(=O)O)C(=O)OC(=O)c2ccccc2N)CCCCC1 (H-N[Ac6c][pY]E-{O(2-Aminobenzoyl)}) showed an IC50 of 14 nM.
For CC[C@H](C)[C@H](NC(=O)[C@H](CC(N)=O)NC(=O)[C@@H](N)CCC(N)=O)C(=O)N[C@@H](Cc1ccc(OP(=O)(O)O)cc1)C(=O)N[C@H](C(=O)OS(=O)(=O)c1cccc2cccnc12)[C@@H](C)CC (H-QNI[pY]I-X9), the IC50 was 230 nM.
With CC[C@H](C)[C@H](NC(=O)[C@H](CC(N)=O)NC(=O)[C@H](N)CSCNC(C)=O)C(=O)N[C@@H](Cc1ccc(OP(=O)(O)O)cc1)C(=O)N[C@@H](CSCNC(C)=O)C(=O)OC(=O)c1ccccc1N the IC50 was 272 nM.
CC[C@H](C)[C@H](NC(=O)[C@H](CC(N)=O)NC(=O)[C@@H](N)CCC(N)=O)C(=O)N[C@@H](Cc1ccc(OP(=O)(O)O)cc1)C(=O)N[C@@H](CCC(=O)O)C(=O)OC(=O)c1ccccc1O (H-QNI[pY]E-X4) showed an IC50 of 780 nM.
NC(=O)CC[C@H](N)C(=O)N[C@@H](CC(N)=O)C(=O)N[C@H]1CSSC[C@@H](C(=O)OC(=O)c2ccccc2N)NC(=O)[C@H](Cc2ccc(OP(=O)(O)O)cc2)NC1=O (H-QNC[pY]C-{O(2-Aminobenzoyl)}; disulfide 3-5) was tested, and the IC50 was 570 nM.
Work on CC[C@H](C)[C@H](NC(=O)[C@@H](N)CC(N)=O)C(=O)N[C@@H](Cc1ccc(OP(=O)(O)O)cc1)C(=O)N[C@@H](Cc1ccccc1)C(=O)OC(=O)c1ccccc1N (H-NI[pY]F-{O(2-Aminobenzoyl)}) yielded an IC50 of 54 nM.
Molecule CC[C@H](C)[C@H](NC(=O)[C@H](CC(N)=O)NC(=O)[C@@H](N)CCC(N)=O)C(=O)N[C@@H](Cc1ccc(OP(=O)(O)O)cc1)C(=O)N[C@@H](CCC(=O)O)C(=O)OC(=O)c1cccc(N)c1 (H-QNI[pY]E-X6) has an IC50 of 57 nM.
With CC[C@H](C)[C@H](NC(=O)[C@H](CC(N)=O)NC(=O)[C@@H](N)CCC(N)=O)C(=O)N[C@@H](Cc1ccc(OP(=O)(O)O)cc1)C(=O)N[C@@H](CCC(=O)O)C(=O)OC(=O)c1ccccc1N (H-QNI[pY]E-{O(2-Aminobenzoyl)}) the IC50 was 22 nM.
Work on CC[C@H](C)[C@H](NC(=O)[C@H](CC(N)=O)NC(=O)[C@@H](N)CCC(N)=O)C(=O)N[C@@H](Cc1ccc(OP(=O)(O)O)cc1)C(=O)N[C@@H](CCC(=O)O)C(=O)NCCOC(=O)c1ccccc1N (H-QNI[pY]E-X12) yielded an IC50 of 130 nM.
In the case of CC[C@H](C)[C@H](NC(=O)[C@H](CC(N)=O)NC(=O)[C@@H](N)CCC(N)=O)C(=O)N[C@@H](Cc1ccc(OP(=O)(O)O)cc1)C(=O)N[C@@H](CCC(=O)O)C(=O)OC(=O)c1cc2ccccc2[nH]1 (H-QNI[pY]E-X2), the IC50 is reported as 200 nM.
With NC(=O)C[C@H](N)C(=O)NC1(C(=O)N[C@@H](Cc2ccc(OP(=O)(O)O)cc2)C(=O)N[C@@H](CCC(=O)O)C(=O)OC(=O)c2ccccc2N)CCCC1 (H-N[Ac5c][pY]E-{O(2-Aminobenzoyl)}) the IC50 was 64 nM.
In the case of CC[C@H](C)[C@H](NC(=O)[C@H](CC(N)=O)NC(=O)[C@@H](N)CCC(N)=O)C(=O)N[C@@H](Cc1ccc(OP(=O)(O)O)cc1)C(=O)N[C@@H](CCC(=O)O)C(=O)OC(=O)c1ccc(N)cc1 (H-QNI[pY]E-X11), the IC50 is reported as 230 nM.
With CC[C@H](C)[C@H](NC(=O)[C@H](CC(N)=O)NC(=O)[C@@H](N)CCC(N)=O)C(=O)N[C@@H](Cc1ccc(OP(=O)(O)O)cc1)C(=O)N[C@@H](C)C(=O)OC(=O)c1ccccc1N (H-QNI[pY]A-{O(2-Aminobenzoyl)}) the IC50 was 11 nM.
Work on CC[C@H](C)[C@H](NC(=O)[C@H](CC(N)=O)NC(=O)[C@@H](N)CCC(N)=O)C(=O)N[C@@H](Cc1ccc(OP(=O)(O)O)cc1)C(=O)N[C@@H](CCC(=O)O)C(=O)OC(=O)c1cc2ccccc2cc1N (H-QNI[pY]E-X13) yielded an IC50 of 600 nM.
In the case of CC[C@H](C)[C@H](NC(=O)[C@H](CC(N)=O)NC(=O)[C@@H](N)CCC(N)=O)C(=O)N[C@@H](Cc1ccc(OP(=O)(O)O)cc1)C(=O)N[C@@H](CCC(=O)O)C(=O)OC(=O)C1Cc2ccccc2N1 (some centres undefined) (H-QNI[pY]E-X5), the IC50 is reported as 74 nM.
CC[C@H](C)[C@H](NC(=O)[C@H](CC(N)=O)NC(=O)[C@@H](N)CCC(N)=O)C(=O)N[C@@H](Cc1ccc(OP(=O)(O)O)cc1)C(=O)NCOC(=O)c1ccccc1N (H-QNI[pY]-X1) gave an IC50 of 6 nM.
Work on CC[C@H](C)[C@H](NC(=O)[C@H](CC(N)=O)NC(=O)[C@@H](N)CSCNC(C)=O)C(=O)N[C@@H](Cc1ccc(OP(=O)(O)O)cc1)C(=O)N[C@@H](CSCNC(C)=O)C(=O)OC(=O)c1ccccc1N yielded an IC50 of 96 nM.

From the Kinase Knowledgebase extract (Sharma et al. 2016)
